Here are results for 20 compounds from patent US11370771B2, “Inhibitors of TRPC6” (Boehringer Ingelheim International GmbH, priority 2018, dated 2022).

Molecules are shown by their SMILES.

One assay has as its target T1, human TRPC6 (Homo sapiens, UniProt Q9Y210).
T1 construct: expressed in transfected cells
T1 sequence (Q9Y210 1-931): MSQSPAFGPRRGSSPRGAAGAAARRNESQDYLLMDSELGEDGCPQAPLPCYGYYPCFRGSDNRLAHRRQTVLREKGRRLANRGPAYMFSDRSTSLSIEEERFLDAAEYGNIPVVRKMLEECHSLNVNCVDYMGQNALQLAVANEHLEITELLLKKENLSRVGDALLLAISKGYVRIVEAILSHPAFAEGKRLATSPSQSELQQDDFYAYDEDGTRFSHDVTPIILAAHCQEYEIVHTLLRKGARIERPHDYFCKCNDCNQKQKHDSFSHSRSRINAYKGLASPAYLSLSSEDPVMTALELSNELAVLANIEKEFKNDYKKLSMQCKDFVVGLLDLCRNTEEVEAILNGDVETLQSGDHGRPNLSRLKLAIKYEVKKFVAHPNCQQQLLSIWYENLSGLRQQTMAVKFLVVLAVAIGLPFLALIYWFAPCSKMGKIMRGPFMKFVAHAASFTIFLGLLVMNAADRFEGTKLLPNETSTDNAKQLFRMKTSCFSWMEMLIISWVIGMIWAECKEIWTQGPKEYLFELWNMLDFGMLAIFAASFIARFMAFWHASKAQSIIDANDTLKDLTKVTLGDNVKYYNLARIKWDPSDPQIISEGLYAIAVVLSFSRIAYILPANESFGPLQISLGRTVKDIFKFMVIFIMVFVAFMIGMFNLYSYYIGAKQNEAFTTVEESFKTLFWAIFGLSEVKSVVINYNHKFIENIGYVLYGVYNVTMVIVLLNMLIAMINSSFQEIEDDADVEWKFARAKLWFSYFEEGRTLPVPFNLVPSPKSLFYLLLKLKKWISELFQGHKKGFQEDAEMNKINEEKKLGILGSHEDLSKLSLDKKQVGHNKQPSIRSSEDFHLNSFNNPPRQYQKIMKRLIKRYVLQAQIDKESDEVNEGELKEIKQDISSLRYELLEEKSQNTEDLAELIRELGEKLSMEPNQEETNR
Description: High Throughput Screening Assay Method 2 (membrane potential dye, GSK1702934A agonist, HEK293 stably transfected with human TRPC6). Type of assay: cell-based. The settings on record: antagonist effect against human TRPC6, 3 μM GSK1702934A agonist, HEK293 TRPC6 cells, read-out: Fluorescence TRPC6 IC50. From the text:
(§1) This screening assay measures TRPC6 (transient receptor potential cation channel, subfamily C, member 6) ion channel activation via addition either of the commercially available DAG ligand analogue OAG (1-oleoyl-2-acetyl-sn-glycerol) or of the TRPC6 agonist 1-[1-(4,5,6,7,8-pentahydrocyclohepta[2,1-d]thiophen-2-ylcarbonyl)-4-piperidyl]-3-hydrobenzimidazol-2-one (GSK1702934A). The assay utilizes a FLIPR membrane potential (FMP) dye from Molecular Devices, which is a voltage sensitive indicator with a fluorescent quencher. Changes in membrane potential as measured by the fluorescent signal increase during membrane depolarization provide a measurement of channel activity.
The commercially available HEK293 cell line (ATCC) was stably transfected with an human TRPC6 gene construct in pcDNA3.1(+) (Thermo Fisher) and screened to find a clone with TRPC6 expression. These cells were maintained in growth medium recommended by the manufacturer supplemented with 400 μg/ml G418 to promote retention of the TRPC6 construct. After growing to near confluency, cells were plated at a density of 15,000 cells/well in clear bottom black walled poly-D-Lys coated 384-well tissue culture treated plates (TwinHelix, cat. #GR 4332 CPL) in growth medium lacking G418, and allowed to grow for 24 hrs. Growth media was removed from the wells and cells were then loaded with 20 μL of 0.5× Membrane Potential sensitive dye (Molecular Devices) in the presence of 30 μM BAPTA-AM (Invitrogen) in Tyrode's assay buffer (130 mM NaCl, 5 mM KCl, 0.15 mM CaCl2), 1 mM MgCl2, 5 mM NaHCO3, 20 mM HEPES, pH 7.4) and incubated for 60 min at room temperature in the dark. Ten μL/well of test compound or controls was added to the wells with the FLIPR^TETRA (Molecular Devices) and incubated for 5 minutes. Compounds were tested at eight concentrations (10, 3.16, 1, 0.316, 0.1, 0.0316, 0.01 and 0.00316 μM diluted in Tyrode's assay buffer and 0.5% DMSO, final concentration) with inter-plate duplicate data points. Subsequently, 15 μL/well of GSK1702934A agonist in Tyrode's assay buffer was added to a final concentration of 3 μM by the FLIPR^TETRA and the signal of the emitted fluorescence (Excitation: 510-545 nm, Emission: 565-625 nm) was recorded for 3 minutes. Negative and positive controls were included on each plate. Negative controls wells consisted of cells exposed to Tyrode's assay buffer and agonist solution, but no test compound. Positive control consisted of cells exposed to […] Verapamil hydrochloride (Tocris, cat. #0654) diluted in Tyrode's assay buffer and 0.5% DMSO final concentration and agonist solution. Inhibition was expressed as a percentage of control, with 0% activity being a result in which the response value of the test wells reached a level identical to the wells containing Verapamil plus GSK1702934A and 100% activity being a result in which the response value of the test wells reached a level identical to the wells containing GSK1702934A alone. Genedata Screener® 14.0.6 was used for data analysis to fit IC50 curves.
Consider `COc1cc(N)ncc1C1CCN(C(=O)c2ccc(Oc3ccc(F)cc3)cc2F)CC1` [Compound 31, 5-{1-[2-Fluoro-4-(4-fluorophenoxy)benzoyl]piperidin-4-yl}-4-methoxypyridin-2-amine], for which the IC50 stood at 0.205 µM.
On the same count and under the same terms, with `Nc1ccc(C2CCN(C(=O)c3ccc(Oc4ccccc4)c(C(F)(F)F)c3)CC2)nn1` [Compound 49, 6-{1-[4-Phenoxy-3-(trifluoromethyl)benzoyl]piperidin-4-yl}pyridazin-3-amine] the figure was 1.16 µM; with `COc1cc(N)ncc1C1CCN(C(=O)c2ccc(OCCC3CC3)cc2F)CC1` [Compound 42, 5-{1-[4-(2-Cyclopropylethoxy)-2-fluorobenzoyl]piperidin-4-yl}-4-methoxypyridin-2-amine], 0.789 µM.
On the same count and under the same terms, then `COc1cc(C(=O)N2CCC(c3cnc(N)cc3OC)CC2)c(F)cc1Oc1ccc(F)cc1` [Compound 29, 5-{1-[2-Fluoro-4-(4-fluorophenoxy)-5-methoxybenzoyl]piperidin-4-yl}-4-methoxypyridin-2-amine], with 0.158 µM.
Still for that read-out and setting: then `COc1cc(N)ncc1C1CCN(C(=O)c2ccc(OCC3CCCCC3)cc2F)CC1` [Compound 41, 5-{1-[4-(Cyclohexylmethoxy)-2-fluorobenzoyl]piperidin-4-yl}-4-methoxypyridin-2-amine], with 2.17 µM.
Take `Nc1ccc(C2CCN(C(=O)c3cc(F)c(Oc4ccc(F)cc4)cc3F)CC2)nn1` [Compound 45, 6-{1-[2,5-Difluoro-4-(4-fluorophenoxy)benzoyl]piperidin-4-yl}pyridazin-3-amine]: the IC50 was 0.061 µM.
Take `COc1cc(C(=O)N2CCC(c3cnc(N)cc3OC)CC2)ccc1OCC1CCC1` [Compound 44, 5-{1-[4-(Cyclobutylmethoxy)-3-methoxybenzoyl]piperidin-4-yl}-4-methoxypyridin-2-amine]: the IC50 was 0.199 µM.
In the case of `Nc1ccc([C@@H]2CCN(C(=O)c3cc(F)c(Oc4ccc(F)cc4)cc3F)[C@H](CO)C2)nn1` [Compound 52b, [(2S,4R)-4-(6-Aminopyridazin-3-yl)-1-[2,5-difluoro-4-(4-fluorophenoxy)benzoyl]piperidin-2-yl]methanol], the 50% inhibitory concentration (IC50) is 0.08 µM.
Same read-out and setting: then `COc1cc(N)ncc1C1CCN(C(=O)c2ccc(Oc3ccc(F)cc3)cc2)CC1` [Compound 32, 5-{1-[4-(4-Fluorophenoxy)benzoyl]piperidin-4-yl}-4-methoxypyridin-2-amine], with 0.097 µM; and `COc1cc(C(=O)N2CCC(c3cnc(N)cc3OC)CC2)c(F)cc1OCC1CC(F)(F)C1` [Compound 37, 5-(1-{4-[(3,3-Difluorocyclobutyl)methoxy]-2-fluoro-5-methoxybenzoyl}piperidin-4-yl)-4-methoxypyridin-2-amine], with 0.478 µM; and `COc1cc(N)ncc1C1CCN(C(=O)c2ccc(OCc3ccon3)cc2F)CC1` [Compound 53, 5-(1-{2-Fluoro-4-[(1,2-oxazol-3-yl)methoxy]benzoyl}piperidin-4-yl)-4-methoxypyridin-2-amine], with 0.641 µM.
Take `COc1cc(N)ncc1C1CCN(C(=O)c2ccc(OCc3nccs3)cc2F)CC1` [Compound 54, 5-(1-{2-Fluoro-4-[(1,3-thiazol-2-yl)methoxy]benzoyl}piperidin-4-yl)-4-methoxypyridin-2-amine]: the concentration for half-maximal inhibition (IC50) came to 1.19 µM.
The same measure, in the same setting: with `COc1cc(N)ncc1N1CCN(C(=O)c2cc(F)c(Oc3ccc(F)cc3)cc2F)C2(CC2)C1` [Compound 28, 5-{4-[2,5-Difluoro-4-(4-fluorophenoxy)benzoyl]-4,7-diazaspiro[2.5]octan-7-yl}-4-methoxypyridin-2-amine] the figure was 0.135 µM.

A further assay has as its target T1, human TRPC6. The experiment in a line: High Throughput Screening Assay Method 1 (FLIPR membrane potential dye, OAG activation, HEK293 cells expressing human TRPC6). Type of assay: cell-based. The settings on record: antagonist effect against human TRPC6, 60 μM OAG, read-out: Fluorescence TRPC6 IC50.
Text: as §1
The commercially available HEK293 cell line expressing human TRPC6 channel (Axxam/PerkinElmer) is scaled up in bulk and frozen in liquid nitrogen. Frozen cell stocks are thawed and re-suspended in culture media as recommended by the manufacturer supplemented with 0.5 mg/ml of geneticin to promote retention of the TRPC6 construct. Cells are plated at a density of 15,000 cells/well in Greiner 384 well poly-D-lysine coated black clear bottom plates, and incubated for 18-20 h at 37° C. and 5% CO2. To initiate the assay, the growth media is removed using a plate washer and 25 ul of a FMP dye mix is added to each well. The 4× stock FMP dye from the manufacturer is diluted 1× with assay buffer (low calcium Tyrode's assay buffer: 130 mM NaCl, 5 mM KCl, 0.15 mM CaCl2), 1 mM MgCl2, 5 mM NaHCO3, 20 mM HEPES pH 7.4) containing 36 μM BAPTA/AM. The cells are incubated at room temperature (19-22° C.) for 30 minutes. For the screening assay, 5 uL of diluted compound stock is added to each well and incubated for 15 minutes at room temperature (19-22° C.). Using the Hamamatsu FDSS6000 or FDSS7000, 10 uL of the synthetic, membrane permeant analog of 1,2 diacylglycerol (DAG), 1-oleoyl-2-acetoyl-n-glycerol (OAG), is added and fluorescent readings taken every second from 50 seconds to 3 minutes. […] Controls and blanks consisted of HEK293 TRPC6 cells that are exposed to OAG. A reference inhibitor added along with the test compound is included as part of the blanks. This inhibitor suppresses the TRPC6 channel activation. These controls set the screening window, and “hits” are defined as those compounds inhibiting the membrane depolarization caused by OAG by at least 50%. IC50 values are determined for compounds that meet these criteria by titrating compound stock at a final starting concentration of 30 μM using a 3-fold serial dilution for 11 points. Curves are generated by fitting each data set to a four-parameter logistic equation using nonlinear regression.
On to `N#Cc1ccc(Oc2ccc(C(=O)N3CCN(c4ccc(N)nn4)CC3)cc2)cc1` [Compound 7, 4-{4-[4-(6-aminopyridazin-3-yl)piperazine-1-carbonyl]phenoxy}benzonitrile], for which the IC50 amounted to 4.67 µM.
In the case of `CN(C)C(=O)c1ccc(Oc2ccc(C(=O)N3CCN(c4ccc(N)nn4)CC3)cc2)cc1` [Compound 25, 4-{4-[4-(6-aminopyridazin-3-yl)piperazine-1-carbonyl]phenoxy}-N,N-dimethylbenzamide], the IC50 was determined as 8.97 µM.
On the same count and under the same terms, with `Nc1ccc(C2CCN(C(=O)c3ccc(Oc4ccccc4)cc3)CC2)cn1` [Compound 1, 5-[1-(4-phenoxybenzoyl)piperidin-4-yl]pyridin-2-amine] the figure was 0.326 µM; with `Nc1ccc(N2CCN(C(=O)c3ccc(Oc4ccc(C5CC5)cc4)cc3)CC2)nn1` [Compound 6, 6-{4-[4-(4-cyclopropylphenoxy)benzoyl]piperazin-1-yl}pyridazin-3-amine], 0.54 µM; with `Nc1ccc(C2CCN(C(=O)c3ccc(Oc4ccccc4)cc3)CC2)nn1` [Compound 3, 6-[1-(4-phenoxybenzoyl)piperidin-4-yl]pyridazin-3-amine], 0.039 µM.
The same measure, in the same setting: with `Nc1ccc(N2CCN(C(=O)c3ccc(Oc4ccc(C(F)(F)F)cc4)cc3)CC2)nn1` [Compound 26, 6-(4-{4-[4-(trifluoromethyl)phenoxy]benzoyl}piperazin-1-yl)pyridazin-3-amine] the figure was 3.75 µM.
Still for that read-out and setting: then `COc1ccc(Oc2ccc(C(=O)N3CCC(c4ccc(N)nn4)CC3)cc2)cc1` [Compound 9, 6-{1-[4-(4-methoxyphenoxy)benzoyl]piperidin-4-yl}pyridazin-3-amine], with 0.511 µM.
